The values that follow come from patent US20210180138A1, “METHODS FOR PROGNOSIS AND TREATMENT OF SOLID TUMORS” (CUREWIZE HEALTH LTD., priority 2017, published 2021).

The test system of series [1] is breast cancer (MCF7) cell line. Briefly: Cell viability, XTT tetrazolium colorimetric assay. It counts as cell-based. Particulars: 24 hours, 1 nM, 10 nM and 100 nM, vs DMSO control. Here is the method:
(§1) FK866 is a potent NAMPT inhibitor that causes the depletion of intracellular NAD+ levels in the cell and ultimately induces apoptosis and cell death. To characterize the effect of FK866 on prostate cancer (PC-3), colon cancer (Caco-2) and breast cancer (MCF7) cell lines, the effects of FK866 on cell death were evaluated. Cells were either control cells, treated with DMSO only, or were treated for 24 hours with 1 nanomolar (nM), 10 nM and 100 nM of FK866, and cell viability was measured using an XTT tetrazolium colorimetric assay.
(Formazan colour is commonly taken as a measure of viable cells.)

Series [2] has as its system colon cancer (Caco-2) cell line. Description: Cell viability, XTT tetrazolium colorimetric assay. The following applies: 24 hours, 1 nM, 10 nM and 100 nM, vs DMSO control. It counts as cell-based. Here is the method:
as §1

Series [3] has as its system prostate cancer (PC-3) cell line. Briefly: Cell viability, XTT tetrazolium colorimetric assay. It counts as cell-based. Particulars: 24 hours, 1 nM, 10 nM and 100 nM, vs DMSO control. The method, then: as §1
The test system of series [4] is prostate cancer PC3 cell line. Description: In-vivo xenograft model, sensitivity to FK866 by miR-451 expression. Set-up: species or system mice. Particulars: for change in tumor growth between non-treated and treated group: 15 mg/kg once a day for 5 days repeated weekly. The method, then: The effect of miR-451 expression levels on efficacy of NAMPT inhibitor was evaluated in an in-vivo xenograft mouse model as in Example 4A. The sensitivity of each prostate cancer cell line (miR-451, antagomiR-451 and scramble miR control) to FK866 treatment was examined in vivo. Twenty mice were injected with each cell line and were divided into two groups: 10 mice were treated with FK866 (15 mg/kg) once a day for 5 days repeated weekly and 10 served as controls, in which no NAMPT inhibitor was injected. The volume of the tumors was measured daily and mice were treated with FK866 from the day all tumors were clinically evident. Treatment with the drug started from day 13 and within 5 days of treatment a change in tumor size was observed between the antagomiR-451 group treated with FK866 and the antagomiR-451 receiving no treatment (FIG. 5A).

For series [5], the system named is miR-451. Briefly: miR-451 expression by RT-qPCR in stable transfected lines. It counts as cell-based. The method, then:
The effect of miR-451 expression level on prostate cancer (PC-3), and breast cancer (MCF7) cell line tumor cells was evaluated in-vitro. Stable lines of each malignancy expressing miR-451 mimic and antagomiR-451 were obtained and transfected as in example 1. miR-451 expression levels in each cell line were validated by quantitative Real Time PCR (RT-qPCR). Total RNA was isolated from 10^7 cells using Qiagen RNeasy isolation kit according to the manufacturer's instruction (Qiagen, Hilden, Germany). 100 ng RNA was converted to cDNA using universal cDNA synthesis kit (Exiqon, Vedbaek, Denmark). RT-qPCR for the miR-451 was performed using Locked-nucleic Acid (LNA™) primers sets (Exiqon, Vedbaek, Denmark). 5S Ribosomal RNA was used as a reference gene. The RT-qPCR reactions were performed in duplicates on the LightCycler 480 (Roche, Rotkreuz, Switzerland) apparatus. The results were expressed as relative expression using the delta Ct method.
Background: Quantitative PCR measures a nucleic acid by following its amplification.

For a further series, the system named is MCF7 cells. Description: In-vivo xenograft model, tumor growth by miR-451 expression. Particulars: MCF7 xenograft in NSG mice; end of experiment; antagomiR-451 cells compared with miR-451 mimic. Here is the method:
(§2) The effect of miR-451 expression levels on tumor cell growth was evaluated in an in-vivo xenograft mice model using MCF7 cells and PC3 cells. Ten million cells harboring antagomiR-451 and miR-451 mimic were injected subcutaneously into the right flanks of 6-8 weeks-old immunodeficient NSG (NOD scid gamma) mice. Ten mice were injected with the MCF7 antagomiR-451 cell line and 11 mice were injected with the miR-451 mimic line. Ten mice were injected with the PC3 antagomiR-451 cell line and the PC3 miR-451 mimic cell line and 8 with the scrambled miR control cell line. The volume of the tumors was measured daily from the day the tumors were clinically evident in all mice.

The subject of another series is PC3 cells. Described as above. The following applies: PC3 xenograft in NSG mice; end of experiment; antagomiR-451 cells compared with miR-451 mimic. Here is the method: as §2
The test system of series [6] is miR-451. Briefly: miR expression after transient transfection with miR-451 mimic. It counts as cell-based. Particulars: PC-3, Caco-2, MCF7 cells transiently transfected, 200 pmol; compared to control cells transfected with scramble miR. The method, then: (§3) A study was performed to determine if NAMPT is regulated by miR-451 in a representative cell line of each malignancy. Cells comprising prostate cancer (PC-3), colon cancer (Caco-2) and breast cancer (MCF7) cell lines were transiently transfected with a miR-451 mimic while “scrambled” miR-451 served as a control. The prostate cancer (PC-3), colon cancer (Caco-2), and breast cancer (MCF7) cells were obtained from ATCC and cultured according to ATCC growth recommendation. Two hundred pmol miR-451 mimic and 200 pmol scramble miR (IDT, Jerusalem, Israel) were transiently transfected by JETPRIME (Polyplus-transfection) into cells according to manufacturer's instructions.
NAMPT protein expression was determined using FACS as follows: […]

The subject of the next series is NAMPT. Description: NAMPT protein expression by FACS in transfected cells. It counts as cell-based. Particulars: PC-3, Caco-2 and MCF7 cell lines; 48 hours after transfection; compared to control scramble-miR cells. The method, then: as §3
One to two million transfected cells were collected 48 hours after transfection and fixed using 500 μl BD phosflow fix buffer I (BD Biosciences, San Jose, Calif., USA) for 15 minutes. Then, pellets were washed twice using PBS and resuspended in 500 μl methanol. Samples were incubated for 2 hours in −20° C. […] The cells were analyzed on flow cytometer (FACSCalibur, Becton Dickinson, Le Pont-De-Claix, France) using BD CellQuest™ Pro software.
FIG. 1 presents NAMPT protein expression level analyzed by FACS using a specific anti-NAMPT antibody in prostate cancer (PC-3), colon cancer (Caco-2) and breast cancer (MCF7) cell lines.

On to `O=C(/C=C/c1cccnc1)NCCCCC1CCN(C(=O)c2ccccc2)CC1` [FK866], for which the cell viability entry in series [1], in [2] and in series [3] was “gradual decrease in cell viability” in each case. Further, the “time of treatment until change in tumor size observed vs no treatment” value in [4] (PC3 antagomiR-451 group, treatment started from day 13, 15 mg/kg) is given as at most 5 days. Moreover, the “change in tumor growth between non-treated and treated group” value is “major change in tumor growth” in [4] (mice injected with PC3 antagomiR-451 cells), “moderate to almost no change in tumor growth” in series [4] (mice injected with PC3 miR-451 mimic cells) and “moderate to almost no change in tumor growth” in series [4] (mice injected with PC3 scramble miR control cells).

“antagomiR-451: SEQ ID NO: 3 is the nucleotide sequence of antagomiR-451 (antisense AATGATCTGTAACGGTTT; listed as DNA, chemistry not given here)”: the “decrease in miR-451 expression” value in the series on miR-451 [5] (PC3 cells, compared to PC3 control cells) is listed as 67%. For the same compound, the tumor volume entry in the series with MCF7 cells and in the series on PC3 cells was “significant increase in tumor volume” in each case.

Turning to “miR-451 mimic: SEQ ID NO: 1 is the nucleotide sequence of miR-451 mimic (AAACCGUUACCAUUACUGAGUU; listed as RNA, chemistry not given here)”, the “increase in the expression levels of the miR” value in the series with miR-451 [6] is on record as 3 fold. The “NAMPT protein expression level” value in the series on NAMPT is listed as “reduction in NAMPT expression”. For the same compound, in the series on miR-451 [5] (MCF7 cells, mimic compared with MCF7 cells transfected with antagomiR-451), the “level in miR-451” value was “twice as high”. Besides, the “increase in miR-451 expression” value with miR-451 [5] (PC3 cells, compared with control (PC3 cells transfected with miR scramble)) is “tenfold increase”.
